Where two headings read alike, the source gives them in different places.
Assays:
BRD4(1) = target: T1, BRD4(1) (Homo sapiens, UniProt O60885); assay: Inhibition of tetra-acetylated histone H4 binding to individual BET bromodomains (AlphaScreen); details: His-tagged BRD4(1) 20 nM, biotinylated tetra-acetylated histone H4 peptide, 30 min incubation; read-out: FRET activity BRD4(1)
T1 construct: N-terminally His-tagged bromodomains (BRD4(1) at 20 nM and BRD4(2) at 100 nM); made in house; host or cells: E. coli BL21(DE3)
Protocol: Proteins were cloned and overexpressed with a N-terminal 6×His tag, then purified by nickel affinity followed by size exclusion chromatography. Briefly, E. coli BL21(DE3) cells were transformed with a recombinant expression vector encoding N-terminally Nickel affinity tagged bromodomains from Brd2, Brd3, Brd4. Cell cultures were incubated at 37° C. with shaking to the appropriate density and induced overnight with IPTG. The supernatant of lysed cells was loaded onto Ni-IDA column for purification. Eluted protein was pooled, concentrated and further purified by size exclusion chromatography. Fractions representing monomeric protein were pooled, concentrated, aliquoted, and frozen at −80° C. for use in subsequent experiments.
Binding of tetra-acetylated histone H4 peptide (Millipore) and BET bromodomains was confirmed by Amplified Luminescent Proximity Homogenous Assay (AlphaScreen). N-terminally His-tagged bromodomains (BRD4(1) at 20 nM and BRD4(2) at 100 nM) and biotinylated tetra-acetylated histone H4 (10-25 nM) were incubated in the presence of nickel chelate acceptor beads and streptavidin donor beads (PerkinAlmer, 6760000K) added to a final concentration of 2 μg/mL under green light in a white 96 well microtiter plate (Greiner). For inhibition assays, serially diluted compounds were added to the reaction mixtures in a 0.1% final concentrations of DMSO. Final buffer concentrations were 50 mM HEPES, 100 mM NaCl and 0.1% BSA buffer, pH 7.4 and optimized to 30 min incubation time. Assay plates were read at 570 nm on a Synergy H4 Plate Reader (Biotek). IC50 values were determined from a dose response curve.

cMYC = assay: Inhibition of cMYC expression in cancer cell lines (MV4-11, real-time PCR); assay type: cell-based; details: Homo sapiens, read-out: Myc activity
Protocol: MV4-11 cells (CRL-9591) were plated at a density of 2.5×10^4 cells per well in 96 well U-bottom plates and treated with increasing concentrations of test compound or DMSO (0.1%) in IMDM media containing 10% FBS and penicillin/streptomycin, and incubated for 3 h at 37° C. Triplicate wells were used for each concentration. Cells were pelleted by centrifugation and harvested using the mRNA Catcher PLUS kit according to manufacturer's instructions. The eluted mRNA isolated was then used in a one-step quantitative real-time PCR reaction, using components of the RNA UltraSense™ One-Step Kit (Life Technologies) together with Applied Biosystems TaqMan® primer-probes for cMYC and Cyclophilin. Real-time PCR plates were run on a ViiA™7 real time PCR machine (Applied Biosystems), data were analyzed, normalizing the Ct values for cMYC to an internal control, prior to determining the fold expression of each sample, relative to the control.

MV4-11 cells = assay: Inhibition of cell proliferation in cancer cell lines (MV4-11, CellTiter Aqueous One); assay type: cell-based; details: Homo sapiens, read-out: Proliferation activity
Protocol: MV4-11 cells (CRL-9591) were plated at a density of 5×10^4 cells per well in 96 well flat bottom plates and treated with increasing concentrations of test compound or DMSO (0.1%) in IMDM media containing 10% FBS and penicillin/streptomycin. Triplicate wells were used for each concentration and a well containing only media was used as a control. Plates were incubated at 37° C., 5% CO2 for 72 h before adding 20 μL of the CellTiter Aqueous One Solution (Promega) to each well and incubating at 37° C., 5% CO2 for an additional 3-4 h. The absorbance was read at 490 nm in a spectrophotometer and the percentage of cell titer relative to DMSO-treated cells was calculated after correcting for background by subtracting the blank well's signal. IC50 values were calculated using the GraphPad Prism software.

[1] = MV4-11 cells, 3 h incubation, cMYC mRNA

| Compound | IC50 (BRD4(1)) [µM] | IC50 (cMYC; MV4-11, 3 h) [µM] | IC50 (MV4-11 cells; MV4-11, 72 h) [µM] | IC50 (cMYC; [1]) [µM] | IC50 (MV4-11 cells; MV4-11 cells, 72 h incubation) [µM] |
| --- | --- | --- | --- | --- | --- |
| C=CC(=O)N(C)c1cnc2nc(N3CC[C@@H](O)C3)n(Cc3ccccc3)c2c1 [Example 41, (R)—N-(1-Benzyl-2-(3-hydroxypyrrolidin-1-yl)-1H-imidazo[4,5-b]pyridin-6-yl)-N-methylacrylamide] | ≤ 0.3 | 3 to 30 | 3 to 30 | – | – |
| CC(=O)Nc1cnc2nc(C)n(Cc3ccccc3)c2c1 [Example 1, N-(1-Benzyl-2-methyl-1H-imidazo[4,5-b]pyridin-6-yl)acetamide] | 3 to 30 | – | – | – | – |
| C=CC(=O)N(C)c1cnc2nc(N3Cc4cnn(C)c4C3)n(Cc3ccccc3)c2c1 [Example 48, N-(1-Benzyl-2-(1-methylpyrrolo[3,4-c]pyrazol-5(1H,4H,6H)-yl)-1H-imidazo[4,5-b]pyridin-6-yl)-N-methylacrylamide] | ≤ 0.3 | – | – | 0.3 to 3 | 0.3 to 3 |
| C=CC(=O)N(C)c1cnc2nc(N3CC[C@H](CO)C3)n(Cc3ccccc3)c2c1 [Example 25, (S)—N-(1-Benzyl-2-(3-(hydroxymethyl)pyrrolidin-1-yl)-1H-imidazo[4,5-b]pyridin-6-yl)-N-methylacrylamide] | ≤ 0.3 | – | – | < 0.3 | 0.3 to 3 |
| CC(C)C(=O)N(C)c1cnc2nc(N3CCCC3)n(Cc3ccccc3)c2c1 [Example 33, N-(1-Benzyl-2-(pyrrolidin-1-yl)-1H-imidazo[4,5-b]pyridin-6-yl)-N-methylisobutyramide] | 0.3 to 3 | – | – | 0.3 to 3 | 3 to 30 |
| C=CC(=O)N(C)c1cnc2nc(N3CC[C@H](N(C)C)C3)n(Cc3ccccc3)c2c1 [Example 38, (S)—N-(1-Benzyl-2-(3-(dimethylamino)pyrrolidin-1-yl)-1H-imidazo[4,5-b]pyridin-6-yl)-N-methylacrylamide] | ≤ 0.3 | – | – | 0.3 to 3 | 0.3 to 3 |
| C=CC(=O)N(C)c1cnc2nc(N3C[C@H]4CN(C)C[C@H]4C3)n(Cc3ccccc3)c2c1 [Example 27, N-(1-Benzyl-2-((3aR,6aS)-5-methylhexahydropyrrolo[3,4-c]pyrrol-2(1H)-yl)-1H-imidazo[4,5-b]pyridin-6-yl)-N-methylacrylamide] | 0.3 to 3 | – | – | 3 to 30 | 3 to 30 |
| CNC(=O)N(C)c1cnc2nc(N3CCCC3)n(Cc3ccccc3)c2c1 [Example 31, 1-(1-Benzyl-2-(pyrrolidin-1-yl)-1H-imidazo[4,5-b]pyridin-6-yl)-1,3-dimethylurea] | 0.3 to 3 | – | – | 0.3 to 3 | 3 to 30 |
| CCN(C(C)=O)c1cnc2c(c1)n(Cc1ccccc1)c(=O)n2C [Example 13, N-(1-Benzyl-3-methyl-2-oxo-2,3-dihydro-1H-imidazo[4,5-b]pyridin-6-yl)-N-ethylacetamide] | 0.3 to 3 | – | – | – | – |
| C=CC(=O)N(C)c1cnc2nc(N3CC[C@@H](NC(C)=O)C3)n(Cc3ccccc3)c2c1 [Example 44, (R)—N-(2-(3-Acetamidopyrrolidin-1-yl)-1-benzyl-1H-imidazo[4,5-b]pyridin-6-yl)-N-methylacrylamide] | ≤ 0.3 | – | – | 0.3 to 3 | 3 to 30 |
| CN(C(=O)CCCl)c1cnc2c(c1)n(Cc1ccccc1)c(=O)n2C [Example 10, N-(1-Benzyl-3-methyl-2-oxo-2,3-dihydro-1H-imidazo[4,5-b]pyridin-6-yl)-3-chloro-N-methylpropanamide] | 3 to 30 | – | – | – | 3 to 30 |
| C=CC(=O)N(C)c1cnc2nc(N3CC[C@H](O)C3)n(Cc3ccccc3)c2c1 [Example 46, (S)—N-(1-Benzyl-2-(3-hydroxypyrrolidin-1-yl)-1H-imidazo[4,5-b]pyridin-6-yl)-N-methylacrylamide] | ≤ 0.3 | – | – | 0.3 to 3 | 0.3 to 3 |
| C=CC(=O)N(C)c1cnc2nc(N3CC[C@@H](CO)C3)n(Cc3ccccc3)c2c1 [Example 45, (R)—N-(1-Benzyl-2-(3-(hydroxymethyl)pyrrolidin-1-yl)-1H-imidazo[4,5-b]pyridin-6-yl)-N-methylacrylamide] | ≤ 0.3 | – | – | 0.3 to 3 | 0.3 to 3 |
| C=CC(=O)N(C)c1cnc2nc(N3CCC3)n(Cc3ccccc3)c2c1 [Example 17, N-(2-(Azetidin-1-yl)-1-benzyl-1H-imidazo[4,5-b]pyridin-6-yl)-N-methylacrylamide] | ≤ 0.3 | 0.3 to 3 | 0.3 to 3 | – | – |
| CCC(=O)N(C)c1cnc2nc(N3CCCC3)n(Cc3ccccc3)c2c1 [Example 28, N-(1-Benzyl-2-(pyrrolidin-1-yl)-1H-imidazo[4,5-b]pyridin-6-yl)-N-methylpropionamide] | ≤ 0.3 | – | – | 0.3 to 3 | 0.3 to 3 |
| Cc1nc2ncc(N(C)C(=O)CCCl)cc2n1Cc1ccccc1 [Example 5, N-(1-Benzyl-2-methyl-1H-imidazo[4,5-b]pyridin-6-yl)-3-chloro-N-methylpropanamide] | 0.3 to 3 | – | – | 3 to 30 | 3 to 30 |
| C=CC(=O)N(C)c1cnc2nc(N3CC[C@@H](N(C)C)C3)n(Cc3ccccc3)c2c1 [Example 39, (R)—N-(1-Benzyl-2-(3-(dimethylamino)pyrrolidin-1-yl)-1H-imidazo[4,5-b]pyridin-6-yl)-N-methylacrylamide] | ≤ 0.3 | – | – | 0.3 to 3 | 0.3 to 3 |
| CCN(C(C)=O)c1cnc2nc(C)n(Cc3ccccc3)c2c1 [Example 6, N-(1-Benzyl-2-methyl-1H-imidazo[4,5-b]pyridin-6-yl)-N-ethylacetamide] | 0.3 to 3 | 3 to 30 | – | – | – |
| C=CC(=O)N(C)c1cnc2nc(N3CCOCC3)n(Cc3ccccc3)c2c1 [Example 16, N-(1-Benzyl-2-morpholino-1H-imidazo[4,5-b]pyridin-6-yl)-N-methylacrylamide] | ≤ 0.3 | – | – | 3 to 30 | 3 to 30 |
| C=CC(=O)N(C)c1cnc2nc(N3CC(CO)C3)n(Cc3ccccc3)c2c1 [Example 26, N-(1-Benzyl-2-(3-(hydroxymethyl)azetidin-1-yl)-1H-imidazo[4,5-b]pyridin-6-yl)-N-methylacrylamide] | ≤ 0.3 | – | – | 0.3 to 3 | 3 to 30 |
| C=CC(=O)N(C)c1cnc2nc(NC)n(Cc3ccccc3)c2c1 [Example 21, N-(1-Benzyl-2-(methylamino)-1H-imidazo[4,5-b]pyridin-6-yl)-N-methylacrylamide] | ≤ 0.3 | – | – | 0.3 to 3 | 0.3 to 3 |
| CC(=O)N(C)c1cnc2c(c1)n(Cc1ccccc1)c(=O)n2C [Example 11, N-(1-Benzyl-3-methyl-2-oxo-2,3-dihydro-1H-imidazo[4,5-b]pyridin-6-yl)-N-methylacetamide] | ≤ 0.3 | – | – | 3 to 30 | 3 to 30 |
| CCOC(=O)N(C)c1cnc2nc(N3CCCC3)n(Cc3ccccc3)c2c1 [Example 36, Ethyl (1-benzyl-2-(pyrrolidin-1-yl)-1H-imidazo[4,5-b]pyridin-6-yl)(methyl)carbamate] | ≤ 0.3 | 0.3 to 3 | 0.3 to 3 | – | – |
| C=CC(=O)N(C)c1cnc2nc(NC3CCOCC3)n(Cc3ccccc3)c2c1 [Example 20, N-(1-Benzyl-2-((tetrahydro-2H-pyran-4-yl)amino)-1H-imidazo[4,5-b]pyridin-6-yl)-N-methylacrylamide] | ≤ 0.3 | – | – | 0.3 to 3 | 0.3 to 3 |
| C=CC(=O)N(CC)c1cnc2nc(C)n(Cc3ccccc3)c2c1 [Example 7, N-(1-Benzyl-2-methyl-1H-imidazo[4,5-b]pyridin-6-yl)-N-ethylacrylamide] | 0.3 to 3 | – | – | – | – |
| C=CC(=O)N(CC)c1cnc2c(c1)n(Cc1ccccc1)c(=O)n2C [Example 14, N-(1-Benzyl-3-methyl-2-oxo-2,3-dihydro-1H-imidazo[4,5-b]pyridin-6-yl)-N-ethylacrylamide] | 0.3 to 3 | – | – | – | – |
